# Measurements as given in PMC11785675, “Phase Ib study of the oral PI3Kδ inhibitor linperlisib in patients with advanced solid tumors” (International Journal of Clinical Oncology, 2024).
# Experiments:
# [1] = tested on: malignant B cells and primary tumor cell lines; details: preclinical data, no reference given; cited from earlier work
# [2] = Phase Ib trial: pharmacokinetics of linperlisib 80 mg once daily; format: in vivo, human
# Description: Pharmacokinetic analysis included the first 13 patients enrolled in this study who received linperlisib at 80 mg once daily.
# CT26 cancer model = details: preclinical findings, no reference given; cited from earlier work
# [3] = tested on: relapsed or refractory B-cell hematological malignancies; set-up: method as in PMID 34425850; details: phase Ia, cited from earlier work
# [4] = single-dose 14C-YY-20394 tracer study; cited from earlier work
# advanced solid tumors = assay: Phase Ib trial of oral linperlisib: efficacy (RECIST 1.1); format: in vivo, human; details: 80 mg/day oral;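 further: Open-label single-arm multicenter study in China, once-daily dosing over 28-day cycles, response judged by contrast CT or MRI every 8 weeks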
# Description: (§1) This phase Ib, single-arm, open-label, multi-center clinical trial recruited patients with advanced or metastatic solid tumors from eight sites in China.
# (§2) The main exclusion criteria included prior use of PI3K targeted agents and clinically symptomatic central nervous system metastasis or meningeal metastasis.
# (§3) Patients received oral linperlisib 80 mg once per day, taken with warm water either 1 h prior to or 2 h after a meal every day, in a 28-day cycle. Dose adjustments, including holds and reductions, were mandated for grade 3/4 hematologic and grade 3 non-hematologic toxicity. Treatment with linperlisib continued until disease progression, intolerable toxicity, withdrawal of informed consent, death or any other conditions deemed by the investigator to warrant drug discontinuation.
# (§4) Physical examination, assessment of ECOG performance status, clinical laboratory evaluations, electrocardiogram, and other safety evaluations were conducted to assess safety. AEs were graded according to the National Cancer Institute Common Terminology Criteria for Adverse Events (CTCAE), Version 5.0. All AEs were recorded from the time of signing the informed consent to at least 30 days after the last dose, and were followed until resolution or stabilization. Patients underwent radiographic assessments every 8 weeks by enhanced computed tomography or magnetic resonance imaging according to RECIST 1.1.
# (§5) The primary endpoint was safety as assessed by monitoring the frequency, duration, and severity of AEs. Secondary endpoints were efficacy endpoints, including ORR, DCR, and progression-free survival (PFS).
# (§6) Baseline data are presented descriptively. ORR is determined by the proportion of patients who achieve a confirmed complete response (CR) or partial response (PR) as the best overall response, and is presented with CIs. PFS and overall survival (OS) curves are generated using the Kaplan–Meier method. The incidence of AEs and serious AEs (SAEs) are reported as numbers and percentages.
# [5] = tested on: patients with advanced solid tumors; details: 80 mg/day oral;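 further: phase Ib open-label single-arm trial, once-daily dosing in 28-day cycles, adverse events graded by NCI CTCAE v5.0, recorded until at least 30 days post last dose, incidence as patient counts and percentages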
# Description: as §1, §2, §3, §4, §5, §6
compound,measurement,setting,value
COc1ncc(-c2nc(N3CCOCC3)nc3c(CN4CCC(C(C)(C)O)CC4)cc(F)cc23)cc1NS(C)(=O)=O [linperlisib],Apoptosis and proliferation,[1],induce apoptosis and inhibit the proliferation
same,Accumulation after multiple administrations,[2]; 80 mg once daily,no accumulation was observed
same,Trough levels,"[2]; 80 mg once daily, cycle 1, day 7, range 68.4–232",167.7 ng/mL
same,Accumulation after multiple administrations,"[2]; 80 mg once daily, listed as Linperlisib",no accumulation is observed
same,Absorption after a single dose,[2]; 80 mg oral,rapidly absorbed
same,Vd/F,"[2]; human, plasma, single dose oral 80 mg qd, n = 13, read-out: Vz/F, mean (SD)",251 L
same,AUC(0-t),"[2]; human, single dose oral 80 mg qd, n = 13, plasma, read-out: AUC0-24, mean (SD)",4.92 µg·h/mL
same,AUC(0-inf),"[2]; human, single dose oral 80 mg qd, n = 13, plasma, read-out: AUC0-∞, mean (SD)",7.26 µg·h/mL
same,Cmax,"[2]; human, single dose oral 80 mg qd, n = 13, plasma, read-out: Cmax, mean (SD)",0.364 µg/mL
same,MRT,"[2]; human, single dose oral 80 mg qd, n = 13, plasma, read-out: MRT, median (range)",18.9 h
same,half-life,"[2]; human, single dose oral 80 mg qd, n = 13, plasma, read-out: T1/2, mean (SD) (converted)",14.3 h
same,Tmax,"[2]; human, single dose oral 80 mg qd, n = 13, plasma, read-out: Tmax, median (range)",3.9 h
same,"CL/F, mean (SD)","[2]; single dose oral 80 mg qd, n = 13",13.5 (4.9) L/h
same,Tumor volume,CT26 cancer model,reduced tumor volume
same,Objective response rate (ORR),"[3]; 20 to 200 mg, 16/25, 95% CI 45.2–82.8",64%
same,Disease control rate (DCR),"[3]; 20 to 200 mg, 18/25, 95% CI 54.4–89.6",72%
same,Dose-limiting toxicities,[3]; highest 200 mg/day dose,no dose-limiting toxicities were observed
same,Route of excretion,[4],primarily excreted through the kidneys
same,DCR in patients with thymic carcinoma,advanced solid tumors,50%
same,"DCR, patients with less than three prior lines of therapy",advanced solid tumors,46.3%
same,Progressive disease as best response,advanced solid tumors; 94 patients,Thirty-nine
same,Stable disease,advanced solid tumors; 94 patients,34 patients
same,Median progression-free survival (PFS),"advanced solid tumors; 94 patients, 95% CI 1.79–1.88",1.85 months
same,Median overall survival (OS),"advanced solid tumors; 94 patients, median follow-up 4.2 months",not reached
same,Complete response (CR) rate,"advanced solid tumors; 94 patients, one thymoma patient",1.1%
same,Objective response rate (ORR),"advanced solid tumors; all 94 patients, 95% CI 0.0–5.8",1.1%
same,Disease control rate (DCR),"advanced solid tumors; all 94 patients, 95% CI 27.5–47.8",37.2%
same,"DCR, anal cancer",advanced solid tumors; n = 1,1 (100.0) n (%)
same,"DCR, endometrial cancer",advanced solid tumors; n = 1,0 (0.0) n (%)
same,"DCR, esophageal cancer",advanced solid tumors; n = 1,0 (0.0) n (%)
same,"DCR, lung neuroendocrine carcinoma",advanced solid tumors; n = 1,1 (100.0) n (%)
same,"DCR, lung squamous cell carcinoma",advanced solid tumors; n = 1,0 (0.0) n (%)
same,"DCR, oral cavity cancer",advanced solid tumors; n = 1,1 (100.0) n (%)
same,"DCR, ovarian cancer",advanced solid tumors; n = 1,1 (100.0) n (%)
same,"DCR, pancreatic cancer",advanced solid tumors; n = 1,1 (100.0) n (%)
same,"DCR, parotid carcinoma",advanced solid tumors; n = 1,0 (0.0) n (%)
same,"DCR, thymoma",advanced solid tumors; n = 1,1 (100.0) n (%)
same,"ORR, anal cancer",advanced solid tumors; n = 1,0 (0.0) n (%)
same,"ORR, endometrial cancer",advanced solid tumors; n = 1,0 (0.0) n (%)
same,"ORR, esophageal cancer",advanced solid tumors; n = 1,0 (0.0) n (%)
same,"ORR, lung neuroendocrine carcinoma",advanced solid tumors; n = 1,0 (0.0) n (%)
same,"ORR, lung squamous cell carcinoma",advanced solid tumors; n = 1,0 (0.0) n (%)
same,"ORR, oral cavity cancer",advanced solid tumors; n = 1,0 (0.0) n (%)
same,"ORR, ovarian cancer",advanced solid tumors; n = 1,0 (0.0) n (%)
same,"ORR, pancreatic cancer",advanced solid tumors; n = 1,0 (0.0) n (%)
same,"ORR, parotid carcinoma",advanced solid tumors; n = 1,0 (0.0) n (%)
same,"ORR, thymoma",advanced solid tumors; n = 1,1 (100.0) n (%)
same,"DCR, carcinoma of renal pelvis",advanced solid tumors; n = 2,1 (50.0) n (%)
same,"DCR, cholangiocarcinoma",advanced solid tumors; n = 2,0 (0.0) n (%)
same,"DCR, hepatocellular carcinoma",advanced solid tumors; n = 2,0 (0.0) n (%)
same,"ORR, carcinoma of renal pelvis",advanced solid tumors; n = 2,0 (0.0) n (%)
same,"ORR, cholangiocarcinoma",advanced solid tumors; n = 2,0 (0.0) n (%)
same,"ORR, hepatocellular carcinoma",advanced solid tumors; n = 2,0 (0.0) n (%)
same,"DCR, gallbladder cancer",advanced solid tumors; n = 3,2 (66.7) n (%)
same,"DCR, nasopharyngeal carcinoma",advanced solid tumors; n = 3,2 (66.7) n (%)
same,"ORR, gallbladder cancer",advanced solid tumors; n = 3,0 (0.0) n (%)
same,"ORR, nasopharyngeal carcinoma",advanced solid tumors; n = 3,0 (0.0) n (%)
same,"DCR, gastric cancer",advanced solid tumors; n = 4,1 (25.0) n (%)
same,"ORR, gastric cancer",advanced solid tumors; n = 4,0 (0.0) n (%)
same,"DCR, renal cell carcinoma",advanced solid tumors; n = 5,2 (40.0) n (%)
same,"ORR, renal cell carcinoma",advanced solid tumors; n = 5,0 (0.0) n (%)
same,"DCR, lung adenocarcinoma",advanced solid tumors; n = 6,3 (50.0) n (%)
same,"ORR, lung adenocarcinoma",advanced solid tumors; n = 6,0 (0.0) n (%)
same,"DCR, breast cancer",advanced solid tumors; n = 8,1 (12.5) n (%)
same,"ORR, breast cancer",advanced solid tumors; n = 8,0 (0.0) n (%)
same,"DCR, sarcoma",advanced solid tumors; n = 9,3 (33.3) n (%)
same,"ORR, sarcoma",advanced solid tumors; n = 9,0 (0.0) n (%)
same,"DCR, colon cancer",advanced solid tumors; n = 11,3 (27.3) n (%)
same,"ORR, colon cancer",advanced solid tumors; n = 11,0 (0.0) n (%)
same,"DCR, rectal cancer",advanced solid tumors; n = 13,3 (23.1) n (%)
same,"ORR, rectal cancer",advanced solid tumors; n = 13,0 (0.0) n (%)
same,"DCR, thymic carcinoma",advanced solid tumors; n = 16,8 (50.0) n (%)
same,"ORR, thymic carcinoma",advanced solid tumors; n = 16,0 (0.0) n (%)
same,"DCR, lung and mediastinal tumors, total",advanced solid tumors; n = 25,13 (52.0) n (%)
same,"ORR, lung and mediastinal tumors, total",advanced solid tumors; n = 25,1 (4.0) n (%)
same,"DCR, other types of tumor, total",advanced solid tumors; n = 31,11 (35.5) n (%)
same,"ORR, other types of tumor, total",advanced solid tumors; n = 31,0 (0.0) n (%)
same,"DCR, gastrointestinal tumors, total",advanced solid tumors; n = 38,11 (28.9) n (%)
same,"ORR, gastrointestinal tumors, total",advanced solid tumors; n = 38,0 (0.0) n (%)
same,Shrinkage of target lesions,"advanced solid tumors; thymoma, gallbladder cancer, anal canal squamous cell carcinoma, renal cell carcinoma, renal pelvis cancer",more than 20%
same,Target lesion change in patients with HCC,advanced solid tumors; two patients with HCC,one of them had shrinkage of target lesions
same,"Incidence of hyperglycemia related to linperlisib, ≥ grade 3",[5],0%
